Values after ≈ are worked out from the molar mass of the structure shown. Where two headings read alike, the source gives them in different places. Starred links: 1 amine or outer side, 2 acyl side, 3 side chain; linkers in the order of their positions; H or OH if unused. Positions of bridges follow the written chain, without caps; N, C: chain ends. Non-standard residues stand in square brackets, D forms with d. Residues, ends and D or L forms follow the SMILES beside them. *: point of attachment. X6 = O=C(CCC(=O)[*:3])N[C@@H](CS[*:2])C(=O)[*:1]; X7 = O=C(CCC(=O)[*:3])N[C@@H](CC[*:2])C(=O)[*:1]; Trp(7-Me) = Cc1cccc2c(C[C@H](N)C(=O)O)c[nH]c12; αMeLys(Me2) = CN(C)CCCC[C@](C)(N)C(=O)O; 2Nal = N[C@@H](Cc1ccc2ccccc2c1)C(=O)O; d2Nal = N[C@H](Cc1ccc2ccccc2c1)C(=O)O; NMe5Ava = CN(CCCCC(=O)[*:2])[*:1]; Palmitoyl = CCCCCCCCCCCCCCCC(=O)*; 3Pal = N[C@@H](Cc1cccnc1)C(=O)O; αMeL = CC(C)C[C@](C)(N)C(=O)O; Pen = CC(C)(S)[C@H](N)C(=O)O; Suc = O=C(CCC(=O)[*:2])[*:1]; αMeK = C[C@](N)(CCCCN)C(=O)O; Thp = NC1(C(=O)O)CCOCC1; Me2NCH2CH2 = CN(C)CC*; Aib = CC(C)(N)C(=O)O; Ahx = NCCCCCC(=O)O; Ava = NCCCCC(=O)O; Sar = CNCC(=O)O
Key:
[1] = Chemical stability assessment of peptides (relative purity loss); assay type: physicochemical; details: 24 hours at 37° C.
Experimental: Purity of a peptide batch was determined through UPLC/MS (Methods B-G) prior to chemical stability measurement. The target concentration was 1 mg/ml pure compound. Solutions from solid samples were prepared in the following buffer systems with a concentration of 1 mg/ml compound based on the previously determined % purity: • Solubility buffer system A) 50 mM HCl pH 1.2+Acetonitrile (1:1) • Solubility buffer system B) 50 mM phosphate buffer pH 6.5+Acetonitrile (1:1) • Solubility buffer system C) 50 mM phosphate buffer pH 7.4+Acetonitrile (1:1)
Prepared solutions were stored for 24 hours at 2° C. and 37° C. After this time course, the samples were centrifuged for 15 min at 2500 RCF to create a 1:5 dilution of the supernatant. Then 2 μl of the dilution were analysed with UHPLC-UV.
The chemical stability was rated through the relative loss of purity calculated by the equation:
[(purity after 0 hours at 37° C.)−(purity after 24 hours at 37° C.)]/(purity after 0 hours at 37° C.)]*100%
The purity is calculated as [(peak area peptide)/(total peak area)]*100%.

[2] = biological target: T1, human interleukin-23 receptor (recombinant human IL-23R-Fc chimera) (Homo sapiens, UniProt Q5VWK5); experiment: Human ELISA IL23/IL23R (assay for specific human IL23R antagonists); assay type: binding
T1 construct: Fc (IgG Fc fusion)
Experimental: Antagonism of compounds for human interleukin-23 receptor antagonists, was determined by an ELISA assay.
A 384-well plate was coated with 50 μl/well of human IL23 at a final concentration of […] and incubated overnight at 4° C. The wells were washed 3 times with 80 μl wash buffer and blocked with 80 μl blocking buffer for 60 minutes at room temperature and washed again. 20 μl of serially diluted test peptides was added to each well and subsequently 20 μl of recombinant human IL-23R-Fc chimera at final concentration of 0.1 μg/ml. The plate was incubated for 60 minutes at room temperature. After the wells were washed, bound IL23R-Fc was detected with goat anti-hu-IgG1-HRP antibody. Signals were visualized with QuantaBlu Fluorogenic Peroxidase Substrate.

[3] = Solubility testing of peptides at different pH; assay type: physicochemical; details: target concentration 1 mg/ml, 2 hours agitation
Experimental: Prior to the solubility measurement of a synthesized peptide batch, its purity was determined through UPLC/MS (methods B-G).
For solubility testing the target concentration was 1 mg pure compound/ml. Therefore, solutions from solid samples were prepared in a buffer system at a concentration of 1 mg/mL compound. The solid samples were obtained by drying down aliquots of a dimethyl sulfoxide stock solution using a Thermo Speedvac vacuum centrifuge. The dry down time was 3 hours. • Solubility buffer system A) 50 mM HCl pH 1.2 • Solubility buffer system B) 50 mM phosphate buffer pH 6.5 • Solubility buffer system C) 50 mM phosphate buffer pH 7.4 • Solubility buffer system D) 50 mM phosphate buffer pH 9.0
UPLC-UV (Method A) was performed after 2 hours of gentle agitation from the filtered (0.45 μm filter plates) solutions, which was obtained by 10 mins of centrifugation forced filtration at 1500 RCF (relative centrifugal acceleration).
The solubility was determined by the comparison of the UV peak area of 2 μL-injections of a buffered sample diluted 1:5 with a standard curve of a dimethyl sulfoxide reference sample of the diluted in dimethyl sulfoxide with known concentration. The different extinction coefficients were taken into account for the calculation.

[4] = tested on: IL-23 induced STAT3 signaling in HEK-Blue™ IL-23 cells; experiment: IL-23 induced STAT3 signaling in HEK-Blue IL-23 cells (SEAP reporter); assay type: cell-based; details: human IL23 0.25 ng/ml, read-out: pSTAT3
Text: HEK-Blue™ IL-23 cells (Invivogen) are designed for the detection of bioactive human (hIL-23) and murine IL-23 (mIL-23) by monitoring the activation of the STAT3 pathway. Binding of IL-23 to its receptor on the surface of HEK-Blue™ IL-23 cells triggers a signalling cascade leading to the activation of STAT3 and the subsequent production of secreted embryonic alkaline phosphatase (SEAP). This can be readily assessed using QUANTI-Blue™ Solution, a SEAP detection reagent.
HEK-Blue™ IL-23 cells were cultured as described by Invivogen.
On the first day of assay 10 μL of the HEK-Blue IL23 cell suspension (final concentration: 10,000 cells/well) and 10 μl of serially diluted peptides solutions were dispensed into a 384-well assay plate. After pre-incubation of the reaction mixtures at 37° C./5% CO2/95% humidity for 60 minutes, 10 μl of the human IL23 cytokine (final concentration: 0.25 ng/ml) was added to each well for the STAT3 signalling activation. The plate was incubated overnight at 37° C./5% CO2/95% humidity.
On the second day 20 μl per well of Quanti-Blue detection solution (prepared according to the manufacture instruction) was dispensed into a new 384-well plate and followed by the transfer of 5 μl supernatant of the overnight incubated cell/sample mixtures. After incubation of 45 min at room temperature signals were measured with PHERAstar (BMG) at OD 620-655 nm. Dose response data were fitted with XLfit.

[5] = Table 10, read-out: Human ELISA IL23/IL23R IC50
[6] = Table 11, Pen peptide compounds, read-out: Elisa IC50 Pen

Compound	IC50 [2, 5] [nM]	IC50 [4] [nM]	IC50 [2, 6] [nM]	further results
CCCCCCCCCCCCCCCC(=O)NCCCC[C@]1(C)NC(=O)[C@H](Cc2ccc3ccccc3c2)NC(=O)[C@H](Cc2ccc(OCCN(C)C)cc2)NC(=O)[C@@H]2CSSC[C@H](NC(=O)CCC(=O)NCCCC[C@@H](C(=O)N[C@@H](CC(N)=O)C(=O)N[C@@H](Cc3cccnc3)C(=O)N(C)CC(N)=O)NC1=O)C(=O)NCCCC[C@H](NC(C)=O)C(=O)N[C@@H](Cc1c[nH]c3c(C)cccc13)C(=O)N[C@@H](CCCCNC(C)=O)C(=O)N2 [compound 101] (Ac-K[Trp(7-Me)]K(Ac)CY(Me2NCH2CH2)[2Nal][αMeK](Palmitoyl)KN[3Pal][Sar]-NH2; linker 1-4-8 via X6)	3.47			Chemical stability (relative purity loss) Buffer pH 1.2 ([1]; 50 mM HCl pH 1.2 + acetonitrile (1:1)): 12.0%; Chemical stability (relative purity loss) Buffer pH 6.5 ([1]; 50 mM phosphate buffer pH 6.5 + acetonitrile (1:1)): 10.0%; Chemical stability (relative purity loss) Buffer pH 7.4 ([1]; 50 mM phosphate buffer pH 7.4 + acetonitrile (1:1)): 9.0%; solubility at 2 h ([3]; 50 mM HCl buffer, 50 mM HCl pH 1.2, read-out: Solubility Buffer pH 1.2): ≥ 1430 µg/mL; solubility at 2 h ([3]; 50 mM phosphate buffer pH 6.5, read-out: Solubility Buffer pH 6.5): 750 µg/mL (≈ 354 µM); solubility at 2 h ([3]; 50 mM phosphate buffer pH 7.4, read-out: Solubility Buffer pH 7.4): ≥ 870 µg/mL; solubility at 2 h ([3]; 50 mM phosphate buffer pH 9.0, read-out: Solubility Buffer pH 9.0): 810 µg/mL (≈ 382 µM)
CC(=O)NCCCC[C@@H]1NC(=O)[C@H](Cc2c[nH]c3c(C)cccc23)NC(=O)[C@@H](NC(C)=O)CCCCNC(=O)[C@@H]2CCSC[C@H](NC1=O)C(=O)N[C@@H](Cc1ccc(OCCN(C)C)cc1)C(=O)N[C@H](Cc1ccc3ccccc3c1)C(=O)NC1(CCOCC1)C(=O)N[C@H](C(=O)N[C@@H](CC(N)=O)C(=O)N[C@@H](Cc1cccnc1)C(=O)N(C)CC(N)=O)CCCCNC(=O)CCC(=O)N2 [compound 122] (Ac-K[Trp(7-Me)]K(Ac)CY(Me2NCH2CH2)[d2Nal][Thp]KN[3Pal][Sar]-NH2; linker 1-4-8 via X7)	2.3	0.37		
COc1ccc(C[C@@H]2NC(=O)[C@@H]3CSSC(C)(C)[C@H](NC(=O)CCCCCNC(=O)C[C@@H](C(=O)N[C@@H](CC(N)=O)C(=O)N[C@@H](CC(N)=O)C(N)=O)NC(=O)C(C)(C)NC(=O)[C@H](Cc4ccc5ccccc5c4)NC2=O)C(=O)N[C@@H](CC(N)=O)C(=O)N[C@@H]([C@@H](C)O)C(=O)N[C@@H](Cc2c[nH]c4ccccc24)C(=O)N[C@@H](CCC(N)=O)C(=O)N3)cc1 [compound 164] ([Ahx][Pen]NTWQCY(Me)[2Nal][Aib]DNN-NH2; disulfide 2-7; lactam N-11)			23.1	
COc1ccc(C[C@@H]2NC(=O)[C@H]3NC(=O)[C@H](CCC(N)=O)NC(=O)[C@H](Cc4c[nH]c5ccccc45)NC(=O)[C@H]([C@@H](C)O)NC(=O)[C@H](CC(N)=O)NC(=O)[C@@H](NC(=O)CCCCNC(=O)CC[C@@H](C(=O)N[C@@H](CC(N)=O)C(=O)N[C@@H](CC(N)=O)C(N)=O)NC(=O)C(C)(C)NC(=O)[C@H](Cc4ccc5ccccc5c4)NC2=O)C(C)(C)SSC3(C)C)cc1 [compound 159] ([Ava][Pen]NTWQ[Pen]Y(Me)[2Nal][Aib]ENN-NH2; disulfide 2-7; lactam N-11)			280	
COc1ccc(C[C@@H]2NC(=O)[C@H]3NC(=O)[C@H](CCC(N)=O)NC(=O)[C@H](Cc4c[nH]c5ccccc45)NC(=O)[C@H]([C@@H](C)O)NC(=O)[C@H](CC(N)=O)NC(=O)[C@@H](NC(=O)CCCCCNC(=O)CC[C@@H](C(=O)N[C@@H](CC(N)=O)C(=O)NCC(N)=O)NC(=O)C4(CCOCC4)NC(=O)[C@H](Cc4ccc5ccccc5c4)NC2=O)C(C)(C)SSC3(C)C)cc1 [compound 161] ([Ahx][Pen]NTWQ[Pen]Y(Me)[2Nal][Thp]ENG-NH2; disulfide 2-7 (inferred); lactam N-11 (inferred))			76.6	
Cc1cccc2c(C[C@@H]3NC(=O)[C@H]([C@@H](C)O)NC(=O)[C@H](CC(N)=O)NC(=O)[C@@H]4CSSC[C@H](NC(=O)[C@H](CC(C)C)NC3=O)C(=O)N[C@@H](Cc3ccc(OCCN(C)C)cc3)C(=O)N[C@@H](Cc3ccc5ccccc5c3)C(=O)N[C@@](C)(CCCCN(C)C)C(=O)N[C@H](C(=O)N[C@@H](CC(N)=O)C(=O)N[C@@H](Cc3cccnc3)C(N)=O)CCCCNC(=O)CCC(=O)N4)c[nH]c12 [compound 150] (CNT[Trp(7-Me)]LCY(Me2NCH2CH2)[2Nal][αMeLys(Me2)]KN[3Pal]-NH2; disulfide 1-6; linker N-10 via Suc)	0.91	0.13		
Cc1cccc2c(C[C@@H]3NC(=O)[C@H]([C@@H](C)O)NC(=O)[C@H](CC(N)=O)NC(=O)[C@@H]4CSSC[C@H](NC(=O)[C@H](CCC(N)=O)NC3=O)C(=O)N[C@@H](Cc3ccc(OCCN(C)C)cc3)C(=O)N[C@@H](Cc3ccc5ccccc5c3)C(=O)N[C@@](C)(CCCCN(C)C)C(=O)N[C@H](C(=O)N[C@@H](CC(N)=O)C(=O)N[C@@H](Cc3cccnc3)C(=O)N(C)CC(N)=O)CCCCNC(=O)CCC(=O)N4)c[nH]c12 [compound 153] (CNT[Trp(7-Me)]QCY(Me2NCH2CH2)[2Nal][αMeLys(Me2)]KN[3Pal][Sar]-NH2; disulfide 1-6; linker N-10 via Suc)	0.45	0.06		
CC(C)C[C@]1(C)NC(=O)[C@H](Cc2ccc3ccccc3c2)NC(=O)[C@H](Cc2ccc(OCCN(C)C)cc2)NC(=O)[C@@H]2CSSC[C@H](NC(=O)CCCCN(C)C(=O)CC[C@@H](C(=O)N[C@@H](CC(N)=O)C(=O)N[C@@H](CC(N)=O)C(N)=O)NC1=O)C(=O)N[C@@H](CC(N)=O)C(=O)N[C@@H]([C@@H](C)O)C(=O)N[C@@H](Cc1c[nH]c3ccccc13)C(=O)N[C@@H](CCC(N)=O)C(=O)N2 [compound 42] ([NMe5Ava]CNTWQCY(Me2NCH2CH2)[2Nal][αMeL]ENN-NH2; disulfide 2-7; lactam N-11)	0.32	1.42		
COc1ccc(C[C@@H]2NC(=O)[C@H]3NC(=O)[C@H](CCC(N)=O)NC(=O)[C@H](Cc4c[nH]c5ccccc45)NC(=O)[C@H]([C@@H](C)O)NC(=O)[C@H](CC(N)=O)NC(=O)[C@@H](NC(=O)CCCCCNC(=O)CC[C@@H](C(=O)N[C@@H](CC(N)=O)C(=O)N[C@@H](CC(N)=O)C(N)=O)NC(=O)C(C)(C)NC(=O)[C@H](Cc4ccc5ccccc5c4)NC2=O)C(C)(C)SSC3(C)C)cc1 [compound 160] ([Ahx][Pen]NTWQ[Pen]Y(Me)[2Nal][Aib]ENN-NH2; disulfide 2-7; lactam N-11)			72.2	
COc1ccc(C[C@@H]2NC(=O)[C@H]3NC(=O)[C@H](CCC(N)=O)NC(=O)[C@H](Cc4c[nH]c5ccccc45)NC(=O)[C@H]([C@@H](C)O)NC(=O)[C@H](CC(N)=O)NC(=O)[C@@H](NC(=O)CCCCCNC(=O)C[C@@H](C(=O)N[C@@H](CC(N)=O)C(=O)N[C@@H](CC(N)=O)C(N)=O)NC(=O)[C@](C)(CC(C)C)NC(=O)[C@H](Cc4ccc5ccccc5c4)NC2=O)C(C)(C)SSC3(C)C)cc1 [compound 162] ([Ahx][Pen]NTWQ[Pen]Y(Me)[2Nal][αMeL]DNN-NH2; disulfide 2-7; lactam N-11)			33.5	
